Patent US7297506B2, “Assay for nucleotide triphosphate using a modified nucleoside diphosphate kinase comprising a fluorescent label” (Medical Research Council, priority 1999, dated 2007)
Read-outs that look alike come from different tables or passages of the source.

Legend:
[1] = Fluorescence quantum yield determination; format: physicochemical; conditions: in buffer
Method: There is a shift of 6 nm in the absorbance maxima of the fluorophore between IDCC-NDPK and IDCC-NDPK˜P, but only 2 nm in the emission maxima. The fluorescence quantum yields for the two forms of the labelled enzyme were determined using as reference the known value of 0.83 for Coumarin 314 in ethanol.

[2] = in ethanol, known value; cited from earlier work
[3] = system: human rho protein; assay: Nucleotide exchange and GTP hydrolysis of rho measured with IDCC-NDPK˜P fluorescence; format: biochemical; conditions: 2 μM Rho.GDP, 10 μM GTP, 30° C., pH 7.6
Method: The rate of nucleotide exchange from a small G protein, rho (which also has GTPase activity), was determined in solution. The rate of hydrolysis was also obtained indirectly.
Human rho protein was prepared in a form containing tightly-bound GDP. In the presence of excess added GTP, nucleotide exchange occurs such that GDP is released into free solution where it can be measured according to the invention. Once GTP is bound to rho, its hydrolysis is slowly catalysed by the protein at a steady-state rate. This creates more GDP, which is measured once it is released.
Fluorescence emission was recorded for a 200 μl solution containing 20 mM Tris/HCl, pH 7.6, 1 mM MgCl2, 100 mM (NH4)2SO4, 10 μM GTP, and 2 μM IDCC-NDPK˜P. The reaction was started at t=0 by adding 2 μM Rho.GDP. Excitation was at 440 nm with the emission monochromator set to 475 nm. The temperature was 30° C. The data were normalised using the fluorescence change for 1 μM GDP obtained from a titration of IDCC-NDPK˜P with different GTP/GDP ratios. […] The exponential “burst” represents the exchange of GDP bound to rho for GTP. The linear phase represents steady state: exchange of further GTP onto rho is limited by hydrolysis to GDP.

fluorescence quantum yield [1]	Compound	fluorescence quantum yield [2]	rate constant of exponential phase (exchange of bound GDP for GTP) [3] [min⁻¹]	slope of linear phase (steady state GTP hydrolysis) [3] [nM GDP min^−1]
0.52	CCOC(=O)c1cc2cc3c4c(c2oc1=O)CCCN4CCC3 [Coumarin 314]	0.83		
	Rho.GDP: human rho protein, a small G protein with GTPase activity, prepared with tightly-bound GDP		0.196	41.2
